Where two headings read alike, the source gives them in different places.
How the values were obtained:
A-594 = tested on: A-594; design: method as in PMID 10048565; conditions: A-594, human lung carcinoma; ref [15]; read-out: IC50 growth inhibition; cited from earlier work
[1] = biological target: T1, V-ATPase holoenzyme from the midgut of the tobacco hornworm (Manduca sexta, UniProt P31403); assay: Inhibition of purified V-ATPase holoenzyme activity; type: biochemical
T1 construct: purified V-ATPase holoenzyme from the midgut of the tobacco hornworm; from tissue; host or cells: midgut of fifth instar Manduca sexta larvae
T1 sequence (P31403 whole entry): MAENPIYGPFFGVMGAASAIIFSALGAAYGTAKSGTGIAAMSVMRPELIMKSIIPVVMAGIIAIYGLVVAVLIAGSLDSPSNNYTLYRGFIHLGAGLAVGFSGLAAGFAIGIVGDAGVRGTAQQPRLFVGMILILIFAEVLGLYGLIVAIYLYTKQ
Protocol: (§1) The V-ATPase holoenzyme was purified as published elsewhere. Preparation of highly purified membranes containing Na^+/K^+-ATPase from pig kidney followed the protocol of Jørgensen with the three main steps of differential centrifugation, incubation with SDS in the presence of ATP and sucrose density gradient centrifugation in a fixed angle rotor, and led to a specific enzyme activity which was in the same range as that reported by the authors. The resulting sample was stored frozen at -20°C. To prepare crude membrane extracts, the hearts of three mice were washed three times with an ice-cold buffer of pH 8.1 consisting of 0.25 M sucrose, 5 mM Tris-HCl, 5 mM EDTA, and 10 mM Pefabloc SC (Biomol), homogenized in 5 ml of this buffer and centrifuged at 4°C for 25 min at 233,000 × gmax in a fixed angle rotor. The resulting pellet was resuspended in 5 ml of a buffer of pH 7.5, consisting of 5 mM Tris-MOPS (3-morpholinopropanesulfonic acid), 10 mM NaCl, 10 mM Pefabloc SC, 9.6 mM 2-mercaptoethanol, 0.53 mM EGTA and 0.1 % Triton X-100. After an aliquot for protein determination had been taken, 10% bovine serum albumin (final concentration) was added to the suspension which was then stored on ice until the activity assays were run. Beef heart mitochondria were isolated by differential centrifugation, following the protocol of Smith by using a blender to homogenize the heart mince. The initial homogenization buffer consisted of 250 mM saccharose, 10 mM KH2PO4, 10 mM Tris, 2 mM EGTA, 2 mM MgCl2, pH 7.4, and further isolation procedures were carried out in the same medium without EGTA [24]. Submitochondrial particles were obtained by ultrasonic treatment of the mitochondria.
(§2) Standard V-ATPase assays with a final volume of 160 μl and a pH of 8.1 consisted of 3–4 μg of protein, 50 mM Tris-MOPS, 3 mM 2-mercaptoethanol, 1 mM MgCl2, 20 mM KCl, 0.003% C12E10, 20 mM NaCl, and 3 mM Tris-HCl. After 5 min of pre-incubation at 30°C with or without inhibitors, 1 mM Tris-ATP was added and after incubation for 2 min the reaction was stopped by placing the tube in liquid nitrogen. Assays using Na^+/K^+-ATPase were performed in 160 μl at pH 7.5 and contained 0.5 μg of protein, 50 mM Tris-MOPS, 5 mM imidazole, 0.2 mM EDTA, 4 mM MgCl2, 20 mM KCl and 100 mM NaCl. After 5 min of pre-incubation at 37°C with or without inhibitors, 3 mM Tris-ATP was added and after 1 min of incubation the reaction was stopped by placing the tube in liquid nitrogen. […] After 5 min of pre-incubation at 30°C with or without inhibitors, 1 mM Tris-ATP was added and after an incubation time of 10 min the reaction was stopped by placing the tubes in liquid nitrogen. ATPase assays with submitochondrial particles from beef heart were performed in a final volume of 1 ml and a pH of 8.0. The samples contained 9–12 μg protein, 50 mM Tris, 50 mM KCl and 2.5 mM MgCl2. After 5 min of preincubation with or without inhibitors, 5 mM ATP was added, and after an additional incubation time of 15 min the reaction was stopped by the addition of 0.4 ml of 20 % TCA.
(§3) Inorganic phosphate produced in the assays of V-ATPase, Na^+/K^+-ATPase and mouse heart F-ATPase was measured according the protocol of Wieczorek et al., while the determination of inorganic phosphate produced in the assays of beef heart F-ATPase followed the method of Fiske and Subarrow using ascorbic acid as reducing agent.
Fifth instar larvae of M. sexta (Lepidoptera, Sphingidae), weighing 6–8 g, were reared under long day conditions (16 h of light) at 27°C using a synthetic diet modified according to Bell et al.

3Y1 = assay: Growth inhibition of 3Y1 cells (MTT assay); type: cell-based, rat; conditions: 120 h; 3Y1, rat embryogenic fibroblast cell line; MTT after 5 days; read-out: IC50 growth inhibition
Protocol: (§4) Cell lines were obtained from the German Collection of Microorganisms and Cell Cultures (DSMZ). Cell lines 3Y1 and M1 (embryonal fibroblasts from 129/Ola × C57BL/6 mice, [30]) were a generous gift from Dr. S. Miyamoto, Fukoka, Japan, and Dr. P. F. Mühlradt, Braunschweig, Germany. All cell lines were cultivated under conditions recommended by the supplier. Growth inhibition was measured in microtiterplates. Aliquots of 120 μl of the suspended cells (50,000/ml) were given to 60 μl of a serial dilution of the inhibitor. After 5 days, growth was determined using the MTT assay.

M1 = assay: Growth inhibition of M1 cells (MTT assay); type: cell-based, mouse; conditions: 120 h; M1, mouse embryogenic fibroblast cell line; MTT after 5 days; read-out: IC50 growth inhibition
Protocol: as §4

KB-V1 = assay: Growth inhibition of multidrug-resistant KB-V1 cells (MTT assay), with or without verapamil; type: cell-based; conditions: 120 h; KB-V1, mdr human cervix carcinoma; without verapamil; MTT after 5 days
Protocol: The novel antibiotics archazolids and apicularens (Fig. 1) were checked for their impact on the cell growth of a variety of mammalian cell lines from different tissues (Tab. 1). […] Apicularen B was the only exception, with an average IC50 value two orders of magnitude higher. Growth inhibition of the multidrug-resistant cell line KB-V1 was also measured in the presence of verapamil. […] The data in Tab 1. show, that unlike the archazolids, the apicularens are poor substrates of Pgp. To visualize the impact of the antibiotics, PtK2 (potoroo kidney) cells were incubated with the inhibitors and stained for intact acidic lysosomes (Fig. 2). […] The same observation was made with KB-3-1 cells (data not shown). […] Unlike the cell lines listed in Tab. 1, the growth of PtK2 cells was not completely stopped. The same holds true for A-498 cells (human kidney carcinoma). Both cell lines grow epithelial-like. There was obviously a differential reaction of cell lines to V-ATPase inhibitors. For A-431 cells (human epidermoid carcinoma) a dependence on the expression of the EGF receptor was shown.
as §4

L-929 = assay: Growth inhibition of L-929 cells (MTT assay); type: cell-based; conditions: Mus musculus, L929, 120 h; L-929, murine connective tissue; MTT after 5 days
Protocol: as §4

bacterial growth = conditions: ref [11],[15],[17]; cited from earlier work
fungi = conditions: ref [11],[15],[17]; cited from earlier work
F-ATPase [2] = biological target: T2, F-ATPase (Mus musculus, UniProt P56480); assay: Inhibition of F-ATPase activity in crude membranes from mouse heart; type: biochemical; conditions: mouse heart crude membranes
T2 construct: we prepared mitochondria rich crude membranes from mouse heart; from tissue; host or cells: mouse heart, crude membrane extract
Protocol: as §1, §2, §3

F-ATPase [3] = biological target: T3, F-ATPase (Bos taurus, UniProt P00829); assay: Inhibition of F-ATPase activity in submitochondrial particles from beef heart; type: biochemical; conditions: beef heart submitochondrial particles
T3 construct: Submitochondrial particles were obtained by ultrasonic treatment of the mitochondria; from tissue; host or cells: beef heart mitochondria, submitochondrial particles
Protocol: as §1, §2, §3

mammalian V-ATPases = conditions: ref [11],[15],[17]; cited from earlier work
[4] = biological target: T1, V-ATPase holoenzyme from the midgut of the tobacco hornworm; design: method as in PMID 12186879; conditions: ref [10], cited from earlier work
Vo subunit c = biological target: T4, Vo subunit c (Manduca sexta, UniProt P31403); design: method as in PMID 12186879; conditions: previous study; ref [10]; cited from earlier work
T4 construct: from tissue; host or cells: midgut of Manduca sexta larvae (purified V-ATPase)
T4 sequence (P31403 whole entry): as above

V-ATPases from fungi = conditions: Saccharomyces cerevisiae or Neurospora crassa; ref [11],[15],[17]; cited from earlier work

| Compound | IC50 (A-594) | IC50 per mg of protein, purified V-ATPase ([1]; equivalent of the half-maximal concentration) | IC50 ([1]; purified holoenzyme, 3–4 μg protein, pH 8.1, 30°C, read-out: half-maximal inhibition concentration of purified V-ATPase) | IC50 (3Y1) | IC50 (M1) | IC50 (KB-V1) | IC50 (L-929) | inhibition of bacterial growth (bacterial growth) | activity against fungi (fungi) | ATPase activity reduced to (remaining activity) (F-ATPase [2]; inhibitor 1 μM) | effect of increased inhibitor concentration on F-ATPase activity (F-ATPase [2]; inhibitor 10 μM) | ATPase activity reduced to (remaining activity) (F-ATPase [3]; inhibitor 1 μM) | effect of increased inhibitor concentration on F-ATPase activity (F-ATPase [3]; inhibitor 10 μM) | inhibition of mammalian V-ATPases (mammalian V-ATPases) | IC50 per mg of protein, purified V-ATPase [4] | IC50 ([4]; read-out: half-maximal inhibition concentration of purified V-ATPase) | labelling of / binding to subunit c (Vo subunit c) | inhibition of V-ATPases from fungi (V-ATPases from fungi) |
| --- | --- | --- | --- | --- | --- | --- | --- | --- | --- | --- | --- | --- | --- | --- | --- | --- | --- | --- |
| CC/C=C\C=C/C(=O)N/C=C/CC1CC2CC(O[C@@H]3O[C@H](CO)[C@@H](O)[C@H](O)[C@H]3NC(C)=O)CC(Cc3cccc(O)c3C(=O)O1)O2 (stereo partly shown) [apicularen B] | 310 nM | ~2.4 nmol per mg of protein | ~60 nM | 310 nM | 190 nM | 1600 nM | 620 nM | failed to inhibit | – | – | – | – | – | – | – | – | – | – |
| archazolid | – | – | – | – | – | – | – | – | weak activity | approximately 80% | no substantial effect | approximately 80% | no substantial effect | – | – | – | – | – |
| salicylihalamide | – | – | – | – | – | – | – | failed to inhibit | – | – | – | – | – | effectively inhibited | ca. 0.5 nmol per mg of protein | ~10 nM | does not bind to subunit c | not at all |

— PMC1190152, “Archazolid and apicularen: Novel specific V-ATPase inhibitors” (BMC Biochemistry, 2005)
